Format in all cases: cell-based
Test [1] relates to Collectotrichum graminicola (Cg). Briefly: Growth inhibition assay of fungal pathogens, Cg. Conditions: 48 h. The method, boiled down:
(§1)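 Spores diluted in 17% V8 liquid media and incubated with compound at final 50, 10, 2 ppm or 2, 0.4, 0.08 ppm (2% DMSO). OD600 plus visual ratings at 24 and 48 hours, blank-subtracted; percent growth inhibition from 48 h readings relative to 2% DMSO control.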

Test [2] has as its system Fusarium moniliforme (Fm). Nature of the test: Growth inhibition assay of fungal pathogens, Fm. Conditions: for IC90: Fusarium verticillioides, 48 h, read-out: Concentration at 90% Inhibition Fm. The essentials: as §1
Test [3] concerns Septoria tritici (St). Briefly: Growth inhibition assay of fungal pathogens, St. Conditions: Zymoseptoria tritici, 48 h. The method, boiled down: as §1
Setting [4] is: read-out: Concentration at 90% Inhibition Cg, Collectotrichum graminicola, growth inhibition at 48 hours vs 2% DMSO control.
The mark [5] stands for this setting: read-out: Concentration at 90% Inhibition Cg, Collectotrichum graminicola, growth inhibition vs 2% DMSO control at 48 hours.
The mark [6] stands for this setting: Fusarium moniliforme, growth inhibition at 48 hours vs 2% DMSO control.
[7] abbreviates: read-out: Concentration at 90% Inhibition St, Septoria tritici, growth inhibition at 48 hours vs 2% DMSO control.
The mark [8] stands for this setting: read-out: Concentration at 90% Inhibition St, Septoria tritici, growth inhibition vs 2% DMSO control at 48 hours.
The mark [9] stands for this setting: Collectotrichum graminicola, growth inhibition at 48 hours vs 2% DMSO control, read-out: Concentration at 90% Inhibition Cg.
Where [10] appears, read: Collectotrichum graminicola, growth inhibition vs 2% DMSO control at 48 hours, read-out: Concentration at 90% Inhibition Cg.
Where [11] appears, read: Fusarium moniliforme, growth inhibition vs 2% DMSO control at 48 hours.
Where [12] appears, read: Septoria tritici, growth inhibition at 48 hours vs 2% DMSO control, read-out: Concentration at 90% Inhibition St.
[13] abbreviates: Septoria tritici, growth inhibition vs 2% DMSO control at 48 hours, read-out: Concentration at 90% Inhibition St.

In brackets after ≈: the same amount, converted by molar mass. Read-outs that look alike come from different tables or passages of the source.

With `COc1ccc(F)cc1[C@H](Cn1c(=O)n(C(C)(C)C(=O)NC(C)C)c(=O)c2c(C)c(-n3nccn3)sc21)OCCO` [Compound I-43, (R)-2-(1-(2-(5-fluoro-2-methoxyphenyl)-2-(2-hydroxyethoxy)ethyl)-5-methyl-2,4-dioxo-6-(2H-1,2,3-triazol-2-yl)-1,4-dihydrothieno[2,3-d]pyrimidin-3(2H)-yl)-N-isopropyl-2-methylpropanamide], the IC90 was 0.4 mg/L (≈ 0.68 µM) in test [1] (setting [4]); 0.4 mg/L (≈ 0.68 µM) in test [1] (setting [5]); 0.08 mg/L (≈ 0.136 µM) in test [2]; 2 mg/L (≈ 3.4 µM) in test [3] (setting [7]); 10 mg/L (≈ 17 µM) in test [3] (setting [8]). For the same molecule, the “Concentration at 90% Inhibition Fm” value in test [2] (setting [6]) is recorded as “AA (compound concentration of 0.08 ppm at 90% inhibition of fungal pathogens)”.
In the case of `COc1ccc(F)cc1[C@H](Cn1c(=O)n(C(C)(C)C(=O)N2CCCC2)c(=O)c2c(C)c(-n3nccn3)sc21)OCCO` [Compound I-44, (R)-1-(2-(5-fluoro-2-methoxyphenyl)-2-(2-hydroxyethoxy)ethyl)-5-methyl-3-(2-methyl-1-oxo-1-(pyrrolidin-1-yl)propan-2-yl)-6-(2H-1,2,3-triazol-2-yl)thieno[2,3-d]pyrimidine-2,4(1H,3H)-dione], the IC90 in test [1] (setting [9]) is 2 mg/L (≈ 3.33 µM); in test [1] (setting [10]), 2 mg/L (≈ 3.33 µM); in test [2] (setting [6]), 0.4 mg/L (≈ 0.666 µM); in test [2] (setting [11]), 0.4 mg/L (≈ 0.666 µM); in test [3] (setting [12]), over 50 mg/L; in test [3] (setting [13]), over 50 mg/L.
Consider `COc1ccc(F)cc1[C@H](Cn1c(=O)n(C(C)(C)C(=O)NC(C)C)c(=O)c2c(C)c(-n3nccn3)sc21)OC[C@@H](C)O` [Compound I-45, 2-(1-((R)-2-(5-fluoro-2-methoxyphenyl)-2-((R)-2-hydroxypropoxy)ethyl)-5-methyl-2,4-dioxo-6-(2H-1,2,3-triazol-2-yl)-1,4-dihydro-thieno[2,3-d]pyrimidin-3(2H)-yl)-N-isopropyl-2-methylpropanamide], for which the IC90 in test [1] (setting [4]) stood at 0.4 mg/L (≈ 0.664 µM); in test [1] (setting [5]) it was 0.4 mg/L (≈ 0.664 µM); in test [2], 0.08 mg/L (≈ 0.133 µM); in test [3] (setting [7]) it was 2 mg/L (≈ 3.32 µM); in test [3] (setting [8]), 10 mg/L (≈ 16.6 µM). Also, in test [2] (setting [6]), the “Concentration at 90% Inhibition Fm” value is listed as “AA (compound concentration of 0.08 ppm at 90% inhibition of fungal pathogens)”.
With `COc1ccc(F)cc1[C@H](Cn1c(=O)n(C(C)(C)C(=O)N2CCCC2)c(=O)c2c(C)c(-n3nccn3)sc21)OC[C@@H](C)O` [Compound I-46, 1-((R)-2-(5-fluoro-2-methoxyphenyl)-2-((R)-2-hydroxypropoxy)ethyl)-5-methyl-3-(2-methyl-1-oxo-1-(pyrrolidin-1-yl)propan-2-yl)-6-(2H-1,2,3-triazol-2-yl)thieno[2,3-d]pyrimidine-2,4(1H,3H)-dione], the IC90 in test [1] (setting [9]) is 0.4 mg/L (≈ 0.651 µM); in test [1] (setting [10]), 0.4 mg/L (≈ 0.651 µM); in test [2] (setting [6]), 0.08 mg/L (≈ 0.13 µM); in test [2] (setting [11]), 0.08 mg/L (≈ 0.13 µM); in test [3] (setting [12]) it was over 50 mg/L; in test [3] (setting [13]), over 50 mg/L.
Take `COc1ccc(F)cc1[C@H](Cn1c(=O)n(C(C)(C)C(=O)NC(C)C)c(=O)c2c(C)c(-n3nccn3)sc21)OC[C@H](C)O` [Compound I-47, 2-(1-((R)-2-(5-fluoro-2-methoxyphenyl)-2-((S)-2-hydroxypropoxy)ethyl)-5-methyl-2,4-dioxo-6-(2H-1,2,3-triazol-2-yl)-1,4-dihydro-thieno[2,3-d]pyrimidin-3(2H)-yl)-N-isopropyl-2-methylpropanamide]: the IC90 in test [1] (setting [4]) is 0.4 mg/L (≈ 0.664 µM); in test [1] (setting [5]), 0.4 mg/L (≈ 0.664 µM); in test [2], 0.08 mg/L (≈ 0.133 µM); in test [3] (setting [7]), 10 mg/L (≈ 16.6 µM); in test [3] (setting [8]), over 50 mg/L. For the same molecule, the “Concentration at 90% Inhibition Fm” value in test [2] (setting [6]) was “AA (compound concentration of 0.08 ppm at 90% inhibition of fungal pathogens)”.
On to `COc1ccc(F)cc1[C@H](Cn1c(=O)n(C(C)(C)C(=O)N2CCCC2)c(=O)c2c(C)c(-n3nccn3)sc21)OC[C@H](C)O` [Compound I-48, 1-((R)-2-(5-fluoro-2-methoxyphenyl)-2-((S)-2-hydroxy-propoxy)ethyl)-5-methyl-3-(2-methyl-1-oxo-1-(pyrrolidin-1-yl)propan-2-yl)-6-(2H-1,2,3-triazol-2-yl)thieno[2,3-d]pyrimidine-2,4(1H,3H)-dione], for which the IC90 in test [1] (setting [9]) is 0.4 mg/L (≈ 0.651 µM); in test [1] (setting [10]) it was 0.4 mg/L (≈ 0.651 µM); in test [2] (setting [6]), 0.4 mg/L (≈ 0.651 µM); in test [2] (setting [11]) it was 0.4 mg/L (≈ 0.651 µM); in test [3] (setting [12]), over 50 mg/L; in test [3] (setting [13]), over 50 mg/L.
As to `COc1ccc(F)cc1[C@H](Cn1c(=O)n(C(C)(C)C(=O)N(C)C)c(=O)c2c(C)c(-n3nccn3)sc21)OC(C)C` [Compound I-49, (R)-2-(1-(2-(5-fluoro-2-methoxyphenyl)-2-isopropoxy-ethyl)-5-methyl-2,4-dioxo-6-(2H-1,2,3-triazol-2-yl)-1,4-dihydrothieno[2,3-d]pyrimi-din-3(2H)-yl)-N,N,2-trimethylpropanamide], the IC90 in test [1] (setting [4]) was 10 mg/L (≈ 17.5 µM); in test [1] (setting [5]) it was over 50 mg/L; in test [2], 0.4 mg/L (≈ 0.698 µM); in test [3] (setting [7]) it was over 50 mg/L; in test [3] (setting [8]), over 50 mg/L. Moreover, in test [2] (setting [6]), the “Concentration at 90% Inhibition Fm” value was “A (compound concentration of 0.4 ppm at 90% inhibition of fungal pathogens)”.
Take `CNC(=O)C(C)(C)n1c(=O)c2c(C)c(-n3nccn3)sc2n(C[C@H](OC(C)C)c2cc(F)ccc2OC)c1=O` [Compound I-50, (R)-2-(1-(2-(5-fluoro-2-methoxyphenyl)-2-isopropoxy-ethyl)-5-methyl-2,4-dioxo-6-(2H-1,2,3-triazol-2-yl)-1,4-dihydrothieno[2,3-d]pyrimidin-3(2H)-yl)-N,2-dimethylpropanamide]: the IC90 in test [1] (setting [4]) was 2 mg/L (≈ 3.58 µM); in test [1] (setting [5]) it was 10 mg/L (≈ 17.9 µM); in test [2] it was 0.4 mg/L (≈ 0.716 µM); in test [3] (setting [7]) it was over 50 mg/L; in test [3] (setting [8]), over 50 mg/L. In addition, in test [2] (setting [6]), the “Concentration at 90% Inhibition Fm” value is “A (compound concentration of 0.4 ppm at 90% inhibition of fungal pathogens)”.
For `COc1ccc(F)cc1[C@H](Cn1c(=O)n(C(C)(C)C(=O)N2CC=CC2)c(=O)c2c(C)c(-n3nccn3)sc21)OC(C)C` [Compound I-51, (R)-3-(1-(2,5-dihydro-1H-pyrrol-1-yl)-2-methyl-1-oxopropan-2-yl)-1-(2-(5-fluoro-2-methoxyphenyl)-2-isopropoxyethyl)-5-methyl-6-(2H-1,2,3-triazol-2-yl)thieno[2,3-d]pyrimidine-2,4(1H,3H)-dione], the IC90 was found to be 0.08 mg/L (≈ 0.134 µM) in test [1] (setting [9]); 0.08 mg/L (≈ 0.134 µM) in test [1] (setting [10]); 0.08 mg/L (≈ 0.134 µM) in test [2] (setting [6]); 0.08 mg/L (≈ 0.134 µM) in test [2] (setting [11]); 2 mg/L (≈ 3.35 µM) in test [3] (setting [12]); 10 mg/L (≈ 16.8 µM) in test [3] (setting [13]).
Take `COc1ccc(F)cc1[C@H](Cn1c(=O)n(C(C)(C)C(=O)NCC#N)c(=O)c2c(C)c(-n3nccn3)sc21)OC(C)C` [Compound I-52, (R)—N-(cyanomethyl)-2-(1-(2-(5-fluoro-2-methoxyphenyl)-2-isopropoxyethyl)-5-methyl-2,4-dioxo-6-(2H-1,2,3-triazol-2-yl)-1,4-dihydro-thieno[2,3-d]pyrimidin-3(2H)-yl)-2-methylpropanamide]: the IC90 was 10 mg/L (≈ 17.1 µM) in test [1] (setting [4]); over 50 mg/L in test [1] (setting [5]); 2 mg/L (≈ 3.43 µM) in test [2]; over 50 mg/L in test [3] (setting [7]); over 50 mg/L in test [3] (setting [8]). Also, the “Concentration at 90% Inhibition Fm” value in test [2] (setting [6]) is listed as “B (compound concentration of 2.0 ppm at 90% inhibition of fungal pathogens)”.
For the molecule `Cc1c(-n2nccn2)sc2c1c(=O)n(C(C)(C)C(=O)NC(C)C)c(=O)n2C[C@H](OC(C)C)c1cc(F)ccc1OCCO` [Compound I-53, (R)-2-(1-(2-(5-fluoro-2-(2-hydroxyethoxy)phenyl)-2-isopropoxyethyl)-5-methyl-2,4-dioxo-6-(2H-1,2,3-triazol-2-yl)-1,4-dihydrothieno[2,3-d]pyrimidin-3(2H)-yl)-N-isopropyl-2-methylpropanamide], the IC90 in test [1] (setting [9]) was 0.4 mg/L (≈ 0.649 µM); in test [1] (setting [10]), 0.4 mg/L (≈ 0.649 µM); in test [2] (setting [6]) it was 0.08 mg/L (≈ 0.13 µM); in test [2] (setting [11]) it was 0.08 mg/L (≈ 0.13 µM); in test [3] (setting [12]) it was over 50 mg/L; in test [3] (setting [13]), over 50 mg/L.
Regarding `COCCOc1ccc(F)cc1[C@H](Cn1c(=O)n(C(C)(C)C(=O)NC(C)C)c(=O)c2c(C)c(-n3nccn3)sc21)OC(C)C` [Compound I-54, (R)-2-(1-(2-(5-fluoro-2-(2-methoxyethoxy)phenyl)-2-isopropoxyethyl)-5-methyl-2,4-dioxo-6-(2H-1,2,3-triazol-2-yl)-1,4-dihydrothieno[2,3-d]pyrimidin-3(2H)-yl)-N-isopropyl-2-methylpropanamide], the IC90 is 0.4 mg/L (≈ 0.634 µM) in test [1] (setting [9]); 0.4 mg/L (≈ 0.634 µM) in test [1] (setting [10]); 0.08 mg/L (≈ 0.127 µM) in test [2] (setting [6]); 0.08 mg/L (≈ 0.127 µM) in test [2] (setting [11]); over 50 mg/L in test [3] (setting [12]); over 50 mg/L in test [3] (setting [13]).

These data come from patent US10800791B2, “Triazole ACC inhibitors and uses thereof” (Gilead Apollo, LLC, priority 2015, dated 2020).
